Assay [1] has as its target T1, human CRTH2 (Homo sapiens, UniProt Q9Y5Y4).
T1 construct: expressed in transfected cells; host or cells: CHO-K1
T1 sequence (Q9Y5Y4 1-395): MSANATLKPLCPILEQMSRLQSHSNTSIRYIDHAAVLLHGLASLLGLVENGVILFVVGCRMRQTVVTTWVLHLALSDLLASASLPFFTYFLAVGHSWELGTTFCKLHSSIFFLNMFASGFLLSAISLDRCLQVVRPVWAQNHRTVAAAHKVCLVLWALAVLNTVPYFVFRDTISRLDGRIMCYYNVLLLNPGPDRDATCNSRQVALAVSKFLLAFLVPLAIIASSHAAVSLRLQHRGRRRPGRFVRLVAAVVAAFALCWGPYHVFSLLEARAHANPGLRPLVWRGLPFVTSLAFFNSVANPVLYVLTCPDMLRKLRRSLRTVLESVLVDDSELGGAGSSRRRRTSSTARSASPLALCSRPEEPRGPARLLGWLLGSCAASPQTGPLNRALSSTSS
In words: Human CRTH2 Receptor Binding Assay (whole cell, [3H]ramatroban competition). The following applies: CHO-K1 cells expressing human CRTH2 and G-alpha16; 20 nM [3H]ramatroban; 1 hour, room temperature. The procedure, abridged: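 Whole CHO-K1 cells stably expressing human CRTH2 and G-alpha16 were incubated with 20 nM [3H]ramatroban and compound for 1 h at room temperature in PBS with 10 mM MgCl2 and 0.06% BSA, then filtered and counted. Non-specific binding was defined with 10 μM 15(R)-15-methyl PGD2, and IC50 was fitted by 4-parameter logistic from 7 concentrations.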

For assay [2], the target named is T1, human CRTH2. In words: Calcium Flux Assay Using Fluorometric Imaging Plate Reader (FLIPR). The assay is classed as cell-based. Conditions: CHO-K1 cells transfected with G-alpha 16 and human CRTH2; inhibition of ligand (DK-PGD2) response. Here is the method: CHO-K1 cells previously transfected with G-alpha 16 were subsequently transfected with the human CRTH2 receptor and the neomycin resistance gene. Following selection in 800 μg/mL G418 (geneticin), individual clones were assayed for their receptor expression based on staining with an anti human CRTH2 IgG, followed by assaying for their response to 13,14-dihydro-15-keto Prostaglandin D2 (DK-PDG2) (ligand) in the Ca^2+ Flux assay. Positive clones were then cloned by limiting dilution cloning. […] Cells were harvested with trypsin-EDTA (trypsin-ethylenediaminetetraacetic acid) and counted using ViaCount® reagent (from Guava Technologies, Inc. which contains two DNA-binding dyes that enable the reagent user to distinguish between viable and non-viable cells). […]
After incubation, both the cell and “assay plate” plates were brought to the fluorometric imaging plate reader (FLIPR®) and 20 μL of the diluted compounds were transferred to the cell plates by the FLIPR®. […] During the assay, fluorescence readings were taken simultaneously from all 384 wells of the cell plate every 1.5 seconds. Five readings were taken to establish a stable baseline, then 20 μL of sample was rapidly (30 μL/sec) and simultaneously added to each well of the cell plate. The fluorescence was continuously monitored before, during and after sample addition for a total elapsed time of 100 seconds. […]
In general terms: A change in cytosolic calcium serves as a functional read-out for many receptors and channels.

As a reminder, the pIC50 is the negative decadic logarithm of the IC50, by convention in mol/L.

pIC50: −log10 of the molar value.

As for `CCS(=O)(=O)c1ccc(Oc2c(C)c(CCC(=O)O)cc3ccc(F)cc23)cc1` [Example 7-1, 3-[4-(4-ethanesulfonyl-phenoxy)-6-fluoro-3-methyl-naphthalen-2-yl]-propionic acid], the negative logarithm of the IC50 (pIC50) at human CRTH2 [1] is 6.89; at human CRTH2 [2], 5.38.
For `CCS(=O)(=O)c1ccc(Oc2cc(CC(=O)O)cc3ccc(F)cc23)cc1` [Example 1-1, [4-(4-ethanesulfonyl-phenoxy)-6-fluoro-naphthalen-2-yl]-acetic acid], in that order: 8.64 and 5.30.
Regarding `Cc1c(CC(=O)O)cc2ccc(F)cc2c1Oc1ccc(S(=O)(=O)C(C)C)cc1` [Example 2-4, {6-fluoro-3-methyl-4-[4-(propane-2-sulfonyl)-phenoxy]-naphthalen-2-yl}-acetic acid], the negative logarithm of the IC50 (pIC50) on human CRTH2 [1] was 8.55.
`Cc1cc(Oc2cc(CC(=O)O)cc3ccc(F)cc23)ccc1S(C)(=O)=O` [Example 1-7, [6-fluoro-4-(4-methanesulfonyl-3-methyl-phenoxy)-naphthalen-2-yl]-acetic acid] showed a pIC50 on human CRTH2 [1] of 8.46.
On the same count and under the same terms, the result for `Cc1cc(Oc2c(C)c(CC(=O)O)cc3ccc(Cl)cc23)ccc1S(C)(=O)=O` [Example 2-8, [6-chloro-4-(4-methanesulfonyl-3-methyl-phenoxy)-3-methyl-naphthalen-2-yl]-acetic acid] reads 8.35.
Consider `Cc1c(CC(=O)O)cc2ccc(F)cc2c1Oc1ccc(S(=O)(=O)c2ccc(F)cc2)cc1` [Example 2-27, {6-fluoro-4-[4-(4-fluoro-benzenesulfonyl)-phenoxy]-3-methyl-naphthalen-2-yl}-acetic acid], for which, on human CRTH2 [1], the pIC50 is 8.54.

The record behind these values is patent US8642629B2, “Naphthylacetic acids” (Hoffmann-La Roche Inc., priority 2008, dated 2014).
